Reference: US9945845B2, “Methods of screening using amphibians” (priority 2009, dated 2018)
Structures can show the parent of a compound that is named as a salt. Where two headings read alike, the source gives them in different places.

Test system: Xenopus embryos
Conditions: for Type of edema Periocular: * = causing bulging eyes, # = bilateral, causing narrow-set eyes; for Type of edema Ventral: ‡ = edemas also detected in the gut
Method: 10-μl aliquots of the chemicals were transferred from the mother plates with a liquid handling robot (Aquarius, Tecan) into 96-well tissue culture plates to generate diluted stock plates (2 mM in DMSO; 50 μl final volume). […] Once embryos reached stage 31 (37 hpf), 10-μl aliquots of the diluted chemicals were added to the wells. […] Negative control wells contained embryos in screening medium and 0.1×MMR only. Embryos were treated with the chemicals in a humidified incubator at 23° C. over a timeframe of 4 days. Embryos were manually scored for the presence of edema or other morphological phenotypes using a teaching dissecting microscope (SV6; Carl Zeiss). Two investigators performed separately the scoring daily at stages 39 (56 hpf), 41 (76 hpf), 45 (98 hpf), and 47 (120 hpf). Dead embryos were removed and 100 μl of water was added daily to each well to compensate for fluid evaporation. […] For imaging at the end of the experiments. Xenopus tadpoles were anesthetized with 0.05% tricaine (Sigma #A5040) in 0.1×MMR. Images were captured using a stereomicroscope (SteREO Lumar V12; Carl Zeiss) equipped with a digital camera (AxioCam Color; Carl Zeiss).
Xenopus late tailbud embryos at stage 31 (37 hpf) were selected for compound treatment. […] Embryos were arrayed into 48-well dishes (five per well) and treated with test compounds at a concentration of 20 μM in the presence of 1% DMSO. […] All 48-well dishes also contained replicates of negative controls (1% DMSO). Embryos were monitored daily over a period of four days for edema formation. In addition, drug-induced lethality and other externally visible phenotypes were scored. On average, 320 compounds were screened per week.

[1] = compounds causing cytotoxicity, 20 μM, 1% DMSO, treatment from stage 31, Nieuwkoop & Faber stage
[2] = onset of edema, 20 μM, 1% DMSO, treatment from stage 31, Nieuwkoop & Faber stage
[3] = compounds causing lethality, 20 μM, 1% DMSO, treatment from stage 31, Nieuwkoop & Faber stage
[4] = embryonic stage, — = no stage of lethality given
[5] = compounds causing other phenotypic defects, 20 μM, scored to stage 47
[6] = onset of pigmentation defects, 20 μM, 1% DMSO
[7] = compounds causing edema, 20 μM, 1% DMSO, treatment from stage 31, scored to stage 47
[8] = onset of other phenotypic defects, 20 μM, 1% DMSO

## CC(=O)c1c(O)c(C)c(O)c(Cc2c(O)c3c(c(C(=O)/C=C/c4ccccc4)c2O)OC(C)(C)C=C3)c1O [Rottlerin]
[1]
  Lethality (NF): 32 NF

## Cl.O=C(CCCN1CCC2(CC1)C(=O)N(CCc1ccc(N=C=S)cc1)CN2c1ccccc1)c1ccc(F)cc1 [N-(p-Isothiocyanatophenethyl)spiperone hydrochloride]
Embryonic stage
  Type of edema Periocular: 45 embryonic stages according to Nieuwkoop and Faber (NF)
  Type of edema Ventral: 45 embryonic stages according to Nieuwkoop and Faber (NF)
[2]
  Onset (NF): 45 NF

## CC(C)Cc1ccc(C(C)C(=O)O)cc1 (racemic) [(±)-Ibuprofen, alpha-Methyl-4-(isobutyl)phenylacetic acid]
Xenopus laevis, in vivo
  Lethality (NF): 45 NF

## CC1(C(=O)O)C2CCC(O2)C1(C)C(=O)O (stereo not shown) [Cantharidic Acid]
[1]
  Lethality (NF): 32 NF

## O=c1c2ccccc2[nH]c(=S)n1CCN1CCC(=C(c2ccc(F)cc2)c2ccc(F)cc2)CC1 [Diacylglycerol Kinase Inhibitor II]
Embryonic stage
  Type of edema Pronephric: 45 embryonic stages according to Nieuwkoop and Faber (NF)
  Type of edema Periocular: 46 embryonic stages according to Nieuwkoop and Faber (NF)
  Type of edema Ventral: 41/42
[2]
  Onset (NF): 41/42

## Nc1nc2ccc(Cl)cc2c2nc(-c3ccco3)nn12 [CGS -15943]
Embryonic stage
  Type of edema Pericordial: 41/42
  Type of edema Pronephric: 45 embryonic stages according to Nieuwkoop and Faber (NF)
  Type of edema Ventral: 45 embryonic stages according to Nieuwkoop and Faber (NF)
In vivo
  Lethality: 46 embryonic stages according to Nieuwkoop and Faber (NF)

## COC(=O)c1c(C)[nH]c(C)c1C(=O)c1ccccc1Cc1ccccc1 [FPL 64176, 2,5-Dimethyl-4-[2-(phenylmethyl)benzoyl]-1H-pyrrole-3-carboxylic acid methyl ester]
[3]
  Lethality (NF): 40 NF

## O=C1Cc2c([nH]c3ccc(Br)cc23)-c2ccccc2N1 [Kenpaullone]
Embryonic stage
  Type of edema Periocular: 45 embryonic stages according to Nieuwkoop and Faber (NF)
  Type of edema Ventral: 45 embryonic stages according to Nieuwkoop and Faber (NF)

## Cc1c(CC(C)(C)C(=O)O)n(Cc2ccc(Cl)cc2)c2ccc(F)cc12 [L-655,240, 3-[1-(4-Chlorobenzyl)-5-fluoro-3-methyl-indol-2-yl]-2,2-dirriethyl propanoic acid]
[1]
  Lethality (NF): 32 NF

## CCNC(=O)N1CCN(CCCC(c2ccc(F)cc2)c2ccc(F)cc2)CC1.Cl [Amperozide hydrochloride, 4-[4,4-bis(4-Fluorophenyl)butyl]-N-ethyl-1-piperazinecarboxamide hydrochloride]
Embryonic stage
  Type of edema Pericordial: 41/42
  Type of edema Periocular: 45 embryonic stages according to Nieuwkoop and Faber (NF)
  Type of edema Ventral: 41/42
[2]
  Onset (NF): 41/42

## CCCCCCCCCCCCCCCCCCOCC(COP(=O)([O-])OCC[N+](C)(C)C)OC (stereo not shown) [ET-18-OCH3, 3,5,9-Trioxa-4-phosphaheptacosan-1-aminium]
[3]
  Lethality (NF): 37/38

## c1ccc2c(c1)[I+]c1ccccc1-2 [Diphenyleneiodonium chloride, [1,1′-Biphenyl]-2,2′-diyiodonium chloride]
Xenopus laevis, in vivo
  Lethality (NF): 42 NF

## Ivermectin
[3]
  Lethality (NF): 41/42

## O.c1cnc2c(c1)ccc1cccnc12 [1,10-Phenenthroline monohydrate]
Embryonic stage
  Type of edema Pericordial: 39/40
  Type of edema Ventral: 41/42
[4]
  Lethality: 46 embryonic stages according to Nieuwkoop and Faber (NF)

## COC1=C(OC)C(=O)c2ccccc2C1=O [2,3-Dimethoxy-1,4-naphthoquinone]
[5]
  Lethality (NF): 42 NF

## CC(C)(C)c1ccc(S(=O)(=O)/C=C/C#N)cc1 [Bay 11-7085, (E)-3-(4-t-Butylphenylsulfortyl)-2-propenenitrile]
[1]
  Lethality (NF): 32 NF

## O=C(/C=C/c1ccc(O)c(O)c1)OCCc1ccccc1 [Caffeic acid phenethyl ester]
Compounds causing pigmentation defects, 20 μM, scored to stage 47
  Lethality (NF): 39 NF
[6]
  Onset (NF): 33/34

## COc1ccc(CCCOC(Cn2ccnc2)c2ccc(OC)cc2)cc1.Cl (stereo not drawn) [SKF 96365, 1-(beta-[3-(4-Methoxyphenyl)propoxy]-4-methoxyphenethyl)-1H-imidazole hydrochloride]
[7]
  Lethality (NF): 41/42
Embryonic stage
  Type of edema Pericordial: 39 embryonic stages according to Nieuwkoop and Faber (NF)
  Type of edema Proctodeal: 40 embryonic stages according to Nieuwkoop and Faber (NF)
  Type of edema Ventral: 40 embryonic stages according to Nieuwkoop and Faber (NF)
[4]
  Lethality: 41/42

## CN1CCC[C@@H]1CCO[C@](C)(c1ccccc1)c1ccc(Cl)cc1 [Clemastine fumarate]
Embryonic stage
  Type of edema Pericordial: 46 embryonic stages according to Nieuwkoop and Faber (NF)
  Type of edema Periocular: 46 embryonic stages according to Nieuwkoop and Faber (NF)
  Type of edema Ventral: 45 embryonic stages according to Nieuwkoop and Faber (NF)

## C[C@H]1CCC/C=C/[C@@H]2C[C@H](O)C[C@H]2[C@H](O)/C=C/C(=O)O1 [Brefeldin A]
[1]
  Lethality (NF): 33/34

## COCCOC(=O)C1=C(C)NC(C)=C(C(=O)OC(C)C)C1c1cccc([N+](=O)[O-])c1 (stereo not shown) [Nimodipine, 1,4-Dihydro-2,6-dimethyl-4-(3-nitrophenyl)-3,5-pyridinecarboxylic acid 2-methoxyethyl 1-methylethyl ester]
Xenopus laevis, in vivo
  Lethality: 41/42
  Lethality (NF): 41/42
Embryonic stage
  Type of edema Pericordial: 41/42
[2]
  Onset (NF): 41/42

## S=C(OC1CC2CC1C1CCCC21)[S][K] [D-609 potassium, Carbonodithioic acid, O-(octahydro-4,7-methano-1H-inden-5-yl) ester potassium]
[1]
  Lethality (NF): 33/34

## Nc1nc2ccc(Cl)cc2c2nc(-c3ccco3)nn12 [CGS-15943, 9-Chloro-2-(2-furyl)[1,2,4]triazolo[1,5-c]quinazolin-5-amine]
Xenopus laevis, in vivo
  Lethality (NF): 46 NF
In vivo
  Onset (NF): 41/42

## Cc1nc2sccn2c(=O)c1CCN1CCC(=C(c2ccc(F)cc2)c2ccc(F)cc2)CC1 [Ritanserin]
Embryonic stage
  Type of edema Pronephric: 45 embryonic stages according to Nieuwkoop and Faber (NF)
  Type of edema Periocular: 41/42
  Type of edema Ventral: 41/42
[2]
  Onset (NF): 41/42

## CCCCCCCCCCCCCCCCCC(=O)NCC(COP(=O)([O-])OCC[N+](C)(C)C)OCC (racemic) [rac-2-Ethoxy-3-octadecanamido-1-propylphospocholine]
[1]
  Lethality (NF): 32 NF

## CC1(C)CCC2=C(O1)c1ccccc1C(=O)C2=O [beta-Lapachone]
[1]
  Lethality (NF): 32 NF

## O=C(c1cc(O)c(O)c([N+](=O)[O-])c1)c1ccccc1F [Ro 41-0960, 2′-Fluoro-3,4-dihydroxy-5-nitrobenzophenone]
[1]
  Lethality (NF): 33/34

## N#CCCN.N#CCCN.O=C(O)/C=C/C(=O)O [3-Aminopropionitrile fumarate]
[8]
  Onset (NF): 46 NF

## CCCCCCCC/C=C\CCCCCCCC(=O)NCCc1ccc(O)c(O)c1 [N-Oleoyldopamine]
[3]
  Lethality (NF): 41 NF

## C[C@]12CC[C@H](O)CC1=CC[C@@H]1[C@@H]2CC[C@]2(C)C(=O)CC[C@@H]12 [trans-Dehydroandrosterone, 5-Androsten-3beta.ol-17-one]
[8]
  Onset (NF): 41/42

## C[C@]12CC[C@@H]3c4ccc(O)cc4CC[C@H]3[C@@H]1CC[C@@H]2O [beta-Estradiol]
Embryonic stage
  Type of edema Periocular: 42 # embryonic stages according to Nieuwkoop and Faber (NF)
[2]
  Onset (NF): 42 NF

## CC#CCOC(=O)c1c(C)nc2sc3c(c2c1N)CCC(O)C3 (stereo not shown) [SB 205384, 4-Amino-7-hydroxy-2-methyl-5,6,7,8-tetrahydrobenzo[b]thieno[2,3-b]pyridine-3-carboxylic acid but-2-ynyl ester]
[5]
  Lethality (NF): 46 NF
[8]
  Onset (NF): 40 NF

## C[C@H](NC(=O)Cc1cc(F)cc(F)c1)C(=O)N[C@H]1N=C(c2ccccc2)c2ccccc2N(C)C1=O [compound E]
20 μM, 1% DMSO, treatment from stage 31
  edema or other phenotype in compound-treated Xenopus embryos/tadpoles (in words): potently induces edemas

## C/C(=C\c1ccc(C(=O)O)cc1)c1ccc2c(c1)C(C)(C)CCC2(C)C [TTNPB]
[7]
  Lethality (NF): 45 NF
Embryonic stage
  Type of edema Proctodeal: 41/42
  Type of edema Pronephric: 39 embryonic stages according to Nieuwkoop and Faber (NF)
  Type of edema Ventral: 41/42
Embryonic stage, + = cerebral edema extending dorso-anteriorly and displacing the eyes
  Type of edema Cerebral: 41/42+
[4]
  Lethality: 45 embryonic stages according to Nieuwkoop and Faber (NF)
[2]
  Onset (NF): 39 NF

## C/C=C(/C)C(=O)O[C@H]1C(C)=C2[C@H]([C@@H]1OC(=O)CCCCCCC)[C@@](C)(OC(C)=O)C[C@H](OC(=O)CCC)[C@@]1(O)[C@H]2OC(=O)[C@@]1(C)O [Thapsigargin]
[1]
  Lethality (NF): 32 NF

## CN1CCc2cccc3c2[C@H]1Cc1ccc(O)c(O)c1-3 [Apomorphine hydrochloride hemihydrate, 10,11-Dihydroxyaporphine hydrochloride hemihydrate]
[6]
  Onset (NF): 33/34

## Dequalinium analog, C-14 linker
[1]
  Lethality (NF): 32 NF
